Experimental data taken from patent publication EP1038880B1, “Androstanes and pregnanes for allosteric modulation of GABA receptor” (priority 1994, dated 1995).

Molecular target: GR complex
Test: [35S]TBPS binding assay (inhibition of [35S]TBPS binding, cerebral cortex P2 homogenate)
Set-up: species or system rat
Details: for IC50: 2 nM [35S]TBPS, rat cerebral cortex P2 homogenate; for IMAX: maximum inhibition of [35S]TBPS binding
Method: We performed several experiments to determine the nature of the modulation of [^35S]TBPS as affected by the compounds of the invention.
These procedures were performed as follows:
Brains from male Sprague-Dawley rats were removed immediately following sacrifice and the cerebral cortices dissected over ice. […] Briefly, the cortices were gently homogenized in 0.32 M sucrose followed by centrifugation at 1000 x g for 10 minutes. The supernatant was collected and centrifuged at 9000 x g for 20 minutes. The resultant P2 pellet was suspended as a 10% (original wet weight/volume) suspension in 50 mM Na/K phosphate buffer (pH 7.4) 200 mM NaCl to form the homogenate.
One hundred microliter […] aliquots of the P2 homogenate (0.5 milligrams (mg) protein) were incubated with 2 nanomolar (nM) [^35S]TBPS (70-110 curies/millimole; New England Nuclear, Boston, MA) in the presence or absence of the naturally occurring steroids or their synthetic derivatives to be tested. The tested compounds were dissolved in dimethylsulfoxide (Baker Chem. Co., Phillipsbury, NJ) and added to the incubation mixture in 5 µL aliquots. The incubation mixture was brought to a final volume of 1 mL with buffer. Non-specific binding was defined as binding in the presence of […] TBPS. The effect and specificity of GABA (Sigma Chem. Co., St. Louis, MO) was evaluated by performing all assays in the presence of GABA plus (+)bicuculline (Sigma Chem. Co.). maintained at 25°C for 90 minutes (steady state conditions) were terminated by rapid filtration through glass fiber filters (No. 32, Schleicher and Schuell, Keene, NH). Filter-bound radioactivity was quantitated by liquid scintillation spectrophotometry.
Various compounds were screened to determine their potential as modulators of [^35S]TBPS binding in vitro. These assays were performed in accordance with the above discussed procedures. […] It is an indication of a compound's in vitro potency. Maximum inhibition is an indication of a compound's in vitro efficacy.

[1] = listed as 3α-Hydroxy-3β-(3'-hydroxyphenyl)-ethynyl-5β-pregnan-20-one

Molecule	IC50	IMAX	IC50 [1]	IMAX [1]
CC(=O)c1ccc(C#C[C@@]2(O)CC[C@@]3(C)[C@@H](CC[C@@H]4[C@@H]3CC[C@]3(C)[C@@H](C(C)=O)CC[C@@H]43)C2)cc1 [3β-(4'-Acetylphenylethynyl)-3α-hydroxy-5α-pregnan-20-one]	0.005 µM	93%	–	–
C[C@]12CC[C@@H](O)C[C@@H]1CC[C@@H]1[C@@H]2CC[C@]2(C)[C@@H](C(=O)CSS(=O)(=O)[O-])CC[C@@H]12.[Na+] [Sodium S-(3α-hydroxy-5α-pregnan-20-on-21-yl) thiosulfate]	0.133 µM	90%	–	–
CC(=O)[C@H]1CC[C@H]2[C@@H]3CC[C@@H]4C[C@@](O)(C#Cc5ccccc5)CC[C@]4(C)[C@H]3CC[C@]12C [3α-hydroxy-3β-phenylethynyl-5β-pregnan-20-one]	0.098 µM	101%	–	–
COc1ccc(CC[C@@]2(O)CC[C@@]3(C)[C@H](CC[C@@H]4[C@@H]3CC[C@]3(C)[C@@H](C(C)=O)CC[C@@H]43)C2)cc1OC [3β-(3',4'-Dimethoxyphenylethyl)-3α-hydroxy-5β-pregnan-20-one]	0.507 µM	66%	–	–
CC(=O)C1CCC2C3CCC4CC(O)(C#Cc5ccc(O)cc5)CCC4(C)C3CCC12C (stereo not drawn) [3β-(4'-Hydroxyphenylethynyl)-3α-hydroxy-5β-pregnan-20-one]	1.55 µM	88%	–	–
C[C@]12CC[C@](O)(C#CCCO)C[C@H]1CC[C@@H]1[C@@H]2CC[C@]2(C)[C@@H](C(=O)Cn3ccnn3)CC[C@@H]12 [3α-hydroxy-3β-(4-hydroxybutyn-1-yl)-21-(1,2,3-triazol-1-yl)-5β-pregnan-20-one]	0.079 µM	96%	–	–
CC(=O)C1CCC2C3CCC4CC(O)(C#CCn5cncn5)CCC4(C)C3CCC12C (stereo not drawn) [3α-Hydroxy-3β-[3'-(1H-1,2,4,-triazol-1yl)-1'-propynyl]-5β-pregnan-20-one]	0.843 µM	99%	–	–
CC(=O)[C@H]1CC[C@H]2[C@@H]3CC[C@@H]4C[C@@](O)(C#CCCO)CC[C@]4(C)[C@H]3C(=O)C[C@]12C [3β-(4'-Hydroxy-1'-butynyl)-3α-hydroxy-5β-pregnan-11,20-dione]	0.268 µM	102%	–	–
CC(=O)c1cccc(C#C[C@@]2(O)CC[C@@]3(C)[C@H](CC[C@@H]4[C@@H]3CC[C@]3(C)[C@@H](C(C)=O)CC[C@@H]43)C2)c1 [3β-(3'-Acetylphenylethynyl)-3α-hydroxy-5β-pregnan-20-one]	0.062 µM	100%	–	–
CC(=O)OCCCCC#C[C@@]1(O)CC[C@@]2(C)[C@H](CC[C@@H]3[C@@H]2CC[C@]2(C)[C@@H](C(C)=O)CC[C@@H]32)C1 [3β-(6'Acetoxy-1'-hexynyl)-3α-hydroxy-5β-pregnan-20-one]	0.306 µM	99%	–	–
CC12CCC(O)CC1CCC1C2CCC2(C)C(C(=O)Cn3ccnc3C=O)CCC12 (stereo not drawn) [3α-hydroxy-21-[1H-(2'-formyl)imidazol-1-yl]-5-pregnan-20-one]	0.213 µM	81%	–	–
CC(=O)C1CCC2C3CCC4CC(O)(C#CCCO)CCC4C3CCC12C (stereo not drawn) [3β-(4'-hydroxy-1'-butynyl)-3α-hydroxy-5β-19-norpregnan-20-one]	0.022 µM	102%	–	–
CC(=O)[C@H]1CC[C@H]2[C@@H]3CC[C@@H]4C[C@@](O)(C#Cc5ccc(F)cc5F)CC[C@]4(C)[C@H]3CC[C@]12C [3β-(2', 4'-difluorophenylethynyl)-3α-hydroxy-5β-pregnan-20-one]	0.109 µM	102%	–	–
CC(=O)[C@H]1CC[C@H]2[C@@H]3CC[C@@H]4C[C@@](O)(C#Cc5cccnc5)CC[C@]4(C)[C@H]3CC[C@]12C [3α-Hydroxy-3β-(3-pyridyl)ethynyl-5β-pregnan-20-one]	0.138 µM	100%	–	–
CC(=O)[C@H]1CC[C@H]2[C@@H]3CC[C@@H]4C[C@@](O)(C#CCCC(N)=O)CC[C@]4(C)[C@H]3CC[C@]12C [3β-(4'-Carboxamidobutynyl)-3α-hydroxy-5β-pregnan-20-one]	2.34 µM	102%	–	–
C[C@]12CC[C@@H](O)C[C@@H]1CC[C@@H]1[C@@H]2CC[C@]2(C)[C@@H](C(=O)Cn3ccnc3)CC[C@@H]12 [3α-hydroxy-21-(1'-imidazolyl)-5α-pregnan-20-one]	0.071 µM	99%	–	–
CC12CCC(O)(C#CCO)CC1CCC1C2CCC2(C)C(C(=O)Cn3nccn3)CCC12 (stereo not drawn) [3α-Hydroxy-3β-(3-hydroxypropyn-1-yl)-21-(1,2,3-triazol-2-yl)-5β-pregnan-20-one]	0.43 µM	107%	–	–

Molecule	IC50	IMAX	IC50 [1]	IMAX [1]
CC(=O)[C@H]1CC[C@H]2[C@@H]3CC[C@@H]4C[C@@](O)(CCc5ccccc5O)CC[C@]4(C)[C@H]3CC[C@]12C [3β-(2'-Hydroxyphenyl)ethyl-3α-hydroxy-5β-pregnan-20-one]	0.101 µM	83%	–	–
COCC#C[C@@]1(O)CC[C@@]2(C)[C@H](CC[C@@H]3[C@@H]2CC[C@]2(C)[C@@H](C(C)=O)CC[C@@H]32)C1 [3α-Hydroxy-3β-(3-methoxy-1-propynyl)-5β-pregnan-20-one]	–	105%	–	–
C[C@]12CC[C@](O)(C#CCCO)C[C@H]1CC[C@@H]1[C@@H]2CC[C@]2(C)[C@@H](C(=O)Cn3cnnn3)CC[C@@H]12 [3α-hydroxy-3β-(4-hydroxybutyn-1-yl)-21-(tetrazol-1-yl)-5β-pregnan-20-one]	0.093 µM	101%	–	–
CC(=O)[C@H]1CC[C@H]2[C@@H]3CC[C@@H]4C[C@@](O)(C#CCO)CC[C@]4(C)[C@H]3CC[C@]12C [3β-(3'-hydroxy-1'-propynyl)-3α-hydroxy-5β-pregnan-20-one]	0.137 µM	93%	–	–
3β-(4'-Aminophenyl)ethynyl-3β-hydroxy-5β-20-one	22.5 µM	103%	–	–
CC(=O)[C@H]1CC[C@H]2[C@@H]3CC[C@H]4C[C@@H](O)CC[C@]4(C)[C@H]3CC[C@]12C [3β-Hydroxy-5α-pregnan-20-one, reference compound]	> 1000 µM	33%	–	–
COc1ccc(C#CC2(O)CCC3(C)C(CCC4C3CCC3(C)C(C(C)=O)CCC43)C2)cc1 (stereo not drawn) [3β-(4'-methoxyphenylethynyl)-3α-hydroxy-5β-pregnan-20-one]	0.047 µM	89%	–	–
CC(=O)[C@H]1CC[C@H]2[C@@H]3CC[C@@H]4C[C@@](O)(C#Cc5cccc(O)c5)CC[C@]4(C)[C@H]3CC[C@]12C [3β-(3'-hydroxyphenylethynyl)-3α-hydroxy-5β-pregnan-20-one]	0.407 µM	99%	0.619 µM	98%
CC(=O)[C@H]1CC[C@H]2[C@@H]3CC[C@@H]4C[C@@](O)(CCCc5ccccc5)CC[C@]4(C)[C@H]3CC[C@]12C [3α-Hydroxy-3β-(3'-phenylpropyl)-5β-pregnan-20-one]	0.173 µM	92%	–	–
CC(=O)CCC#C[C@@]1(O)CC[C@@]2(C)[C@H](CC[C@@H]3[C@@H]2CC[C@]2(C)[C@@H](C(C)=O)CC[C@@H]32)C1 [3α-Hydroxy-3β-[5-oxo-1-hexynyl]-5β-pregnan-20-one]	0.118 µM	101%	–	–
C[C@]12CC[C@@H]3c4ccc(O)cc4CC[C@H]3[C@@H]1CC[C@@H]2O [17β-Estradiol, reference compound]	–	0%	–	–
CC(=O)[C@H]1CC[C@H]2[C@@H]3CC[C@@H]4C[C@@](O)(C#CCc5ccccc5)CC[C@]4(C)[C@H]3CC[C@]12C [3α-Hydroxy-3β-(3'-phenyl-1'-propynyl)-5β-pregnan-20-one]	0.103 µM	95%	–	–
CCN(CC)C(=O)c1ccc(C#CC2(O)CCC3(C)C(CCC4C3CCC3(C)C(C(C)=O)CCC43)C2)cc1 (stereo not drawn) [3β-[4'-(N,N-diethylcarboxamido)phenyl]ethynyl-3α-hydroxy-5β-pregnan-20-one]	0.087 µM	94%	–	–
CC(=O)[C@H]1CC[C@H]2[C@@H]3CC[C@@H]4C[C@@](O)(C#Cc5ccncc5)CC[C@]4(C)[C@H]3CC[C@]12C [3α-Hydroxy-3β-(4-pyridyl)ethynyl-5β-pregnan-20-one]	0.149 µM	103%	–	–
C[C@]12CC[C@H]3[C@@H](CC[C@@H]4C[C@@](O)(C#CCCO)CC[C@@H]43)[C@@H]1CC[C@@H]2C(=O)Cn1ccnn1 [3α-hydroxy-3β-(4-hydroxybutyn-1-yl)-21-(1H-1,2,3-triazol-1-yl)-5β-19-norpregnan-20-one]	0.124 µM	95%	–	–
CC(=O)OCC#C[C@@]1(O)CC[C@@]2(C)[C@H](CC[C@@H]3[C@@H]2CC[C@]2(C)[C@@H](C(C)=O)CC[C@@H]32)C1 [3β-(3'-acetoxy-1'-propynyl)-3α-hydroxy-5β-pregnan-20-one]	–	104%	–	–
C[C@]12CC[C@@H](O)C[C@H]1CC[C@@H]1[C@@H]2CC[C@]2(C)[C@@H](C(=O)Cn3cnc4ncncc43)CC[C@@H]12 [3α-hydroxy-21-(7'H-purin-7'-yl)-5β-pregnan-20-one]	0.43 µM	71%	–	–
